The values that follow come from ChEMBL document CHEMBL4152365, “Discovery of DS-6930, a potent selective PPARγ modulator. Part I: Lead identification” (Bioorg Med Chem, 2018).

The test system of series [1] is Rattus norvegicus. The series can be described thus: Toxicity in Wistar-Imamichi rat assessed as reduction in RBC count at 100 mg/kg, po administered via gavage once daily for 28 days relative to control. In kind it is organism-based. Particulars: in vivo, 672 h. Also on record: scale not given: the % may be the effect or the level left.
The test system of series [2] is Rattus norvegicus. Nature of the series: Toxicity in Wistar-Imamichi rat assessed as reduction in RBC count at 300 mg/kg, po administered via gavage once daily for 28 days relative to control. The conditions noted are these: in vivo, 672 h. More on the design: scale not given: the % may be the effect or the level left. The class given is organism-based.
Series [3] has as its system Rattus norvegicus. Nature of the series: Toxicity in Wistar-Imamichi rat assessed as effect on hemodilution by measuring increase in heart weight at 30 to 300 mg/kg, po administered via gavage once daily for 28 days. The class given is organism-based. Particulars: in vivo, 672 h.
The test system of series [4] is Rattus norvegicus. The series can be described thus: Toxicity in Wistar-Imamichi rat assessed as clinical abnormality at 30 to 300 mg/kg, po administered via gavage once daily for 28 days. The conditions noted are these: in vivo, 672 h. The class given is organism-based.
The test system of series [5] is Rattus norvegicus. The series can be described thus: Glucose-lowering effect in Zucker diabetic fatty rat assessed as reduction in plasma glucose level at 3 mg/kg, po administered once daily for 14 days measured on day 14 post last dose relative to control. The class given is functional. Also on record: scale not given: the % may be the effect or the level left.
Series [6] has as its system Rattus norvegicus. Nature of the series: Toxicity in Wistar-Imamichi rat assessed as effect on hemodilution by measuring increase in heart weight at 100 mg/kg, po administered via gavage once daily for 28 days. In kind it is organism-based. The conditions noted are these: in vivo, 672 h.
Series [7] has as its system Rattus norvegicus. Nature of the series: Toxicity in Wistar-Imamichi rat assessed as elevation in AST activity at 30 to 300 mg/kg, po administered via gavage once daily for 28 days. The conditions noted are these: in vivo, 672 h. In kind it is organism-based.
Series [8] concerns Rattus norvegicus. Nature of the series: Toxicity in Wistar-Imamichi rat assessed as elevation in ALT activity at 30 to 300 mg/kg, po administered via gavage once daily for 28 days. The conditions noted are these: in vivo, 672 h. The class given is organism-based.
Series [9] relates to Rattus norvegicus. The series can be described thus: Toxicity in Zucker diabetic fatty rat assessed as body weight gain at 3 mg/kg, po administered once daily for 14 days relative to control. In kind it is organism-based. Particulars: in vivo, 336 h.
For series [10], the system named is Rattus norvegicus. Nature of the series: Toxicity in Wistar-Imamichi rat assessed as death at 30 to 300 mg/kg, po administered via gavage once daily for 28 days. In kind it is organism-based. Particulars: in vivo, 672 h.
The subject of series [11] is Rattus norvegicus. Nature of the series: Toxicity in Wistar-Imamichi rat assessed as reduction in RBC count at 30 to 300 mg/kg, po administered via gavage once daily for 28 days. The class given is organism-based. Particulars: in vivo, 672 h.
Series [12] deals with Rattus norvegicus. The series can be described thus: Toxicity in Wistar-Imamichi rat assessed as reduction in RBC count at 30 mg/kg, po administered via gavage once daily for 28 days relative to control. The class given is organism-based. Also on record: scale not given: the % may be the effect or the level left. Particulars: in vivo, 672 h.

Molecules are shown by their SMILES.

On to `CN(CCOc1ccc(CC2SC(=O)NC2=O)cc1)c1ccccn1` (configuration not stated) [ROSIGLITAZONE], for which the Activity with Rattus norvegicus [1] was 8.9%; in the series with Rattus norvegicus [2] it was 14.2%; with Rattus norvegicus [3], “Toxic”; with Rattus norvegicus [4], “Non-Toxic”; in the series on Rattus norvegicus [5], 40.3%; in the series with Rattus norvegicus [6], 24.7%. Also, the Activity result in the series on Rattus norvegicus [7] was “Non-Toxic”; in the series with Rattus norvegicus [8] it was “Non-Toxic”; in the series on Rattus norvegicus [9] it was 12.6%; in the series with Rattus norvegicus [10], “Non-Toxic”; in the series with Rattus norvegicus [11], “Dose-dependent effect”; in the series with Rattus norvegicus [12] it was 5.9%.
